# Source: US4868186A, “Theophyllinemethyldithiolan and theophyllinemethyldithianyl derivatives having antibronchospastic antitussive and mucolytic activity” (Istituto Biologico Chemioterapico ABC S.p.A., priority 1986, dated 1989)
# Experiments:
# [1] = test system: completely removed guinea-pig tracheas; assay: Constrictive action of histamine di-hydrochloride on completely removed guinea-pig tracheas (in vitro); format: cell-based; conditions: histamine di-hydrochloride 5.10^-6 g/ml
# Description: Thirty white guinea-pigs were used, from which the tracheas were removed, after they had been killed by ethereal anaesthesia. The tracheas were placed in a 50 ml bath of Krebs solution, suitably oxygenated and thermoregulated at a temperature of 37° C. The lower end of the trachea was closed while the upper end was connected to a polythene tube connected to a transducer for measuring volume differences connected to a polygraph, according to D. Jamieson's method 1962, Brit. J. Pharmacol. and Chemiotherapy, 19, 286, partially modified. Both the trachea and the polythene tube were filled with Krebs solution. The responses of the tracheas thus prepared to acetylcholine and histamine were investigated before and after the addition of the product to the bath.
# rabbits = assay: Mucolytic activity: mucoproduction in rabbits before and after oral treatment; format: in vivo, rabbit; conditions: for Mucoproduction (mg/h) M ± SD 4-0 h (before the treatment): baseline before treatment
# Description: (b) Mucolytic activity of compound 1, doxophylline and bromohexyne hydrochloride For these tests the method described by Perry, W. F., Boyd, E. M., J. Pharmacol., 1941, 73, 65 and suitably modified by us was used. New Zealand-type, male, white rabbits weighing 2.8-3.5 kg. were used. Pre-operative preparation consisted of treatment with 9 mg/kg i.m. of a non-stupefying central analgesic ([…] local anaesthesia in the tracheal region with xylocaine (0.9 mg/kg - 1% solution). The surgical operation commenced 15-20 minutes after the pharmacological pre-treatment. The trachea was exposed and a hole approximately 5-6 mm in diameter was made in its ventral side. The trachea was then introduced into the lower arm of a three-way polypropylene cannula, which had been cut suitably, longitudinally so as to connect the hole made in the trachea with the aperture of the third arm (vertical) of the cannula, and thus put it into communication with the outside. Thus, the cannula surrounded the outside of the trachea and was fixed "in loco" with sterile surgical silk thread. A polypropylene container was attached to the vertical arm of the cannula for collecting the mucous (capacity approximately 2 ml), and the wound was then sutured. The tracheal mucous was collected for four hours before the oral administration of the substance under test and for four hours after the treatment.
# [2] = test system: bronchospasm by acetylcholine chloride in guinea-pigs; assay: Bronchospasm by acetylcholine chloride (0.075 mg/kg i.v.) in guinea-pigs (Konzett and Roesler); format: in vivo, guinea-pig
# Description: Exp. Path. […] J. Pharmcol. 15, 290. Male guinea-pigs weighing 300-450 g were used under urethane anaesthesia (lg/kg i.p.). The animals were suitably prepared by insertion of a cannula in the jugular vein for intravenous administrations while the trachea was connected to an artificial respiration pump (Palmer) adapted for small animals, which was operated at a frequency of approximately 70 insufflations per minute. The pneumogram was recorded by means of a transducer on a polygraph (Battaglia-Rangoni).
smiles,measurement,setting,value
"Cn1c(=O)c2c(ncn2CC2SCC[S+]2[O-])n(C)c1=O (stereo not shown) [COMPOUND 3, 7-[2'-(1',3'-dithiolanyl)-methyl]-theophylline sulphoxide]",ED50,[1]; Table I,530.0 10^-6 g/ml
same,% inhibition,[1]; concentration 100 x 10^-6 g/ml,-14.5%
same,% inhibition,[1]; concentration 200 x 10^-6 g/ml,-21.5%
same,% inhibition,[1]; concentration 300 x 10^-6 g/ml,-35.4%
same,% inhibition,[1]; concentration 400 x 10^-6 g/ml,-47.5%
"Cn1c(=O)c2c(ncn2CC2SCC[S+]2[O-])n(C)c1=O (stereo not shown) [COMPOUND 4, 7-[2'-(1',3'-dithiolanyl)-methyl]-theophylline sulphoxide]",ED50,[1]; Table I,2241.8 10^-6 g/ml
same,% inhibition,[1]; concentration 100 x 10^-6 g/ml,-7.5%
same,% inhibition,[1]; concentration 200 x 10^-6 g/ml,-12.5%
same,% inhibition,[1]; concentration 300 x 10^-6 g/ml,-20.4%
same,% inhibition,[1]; concentration 400 x 10^-6 g/ml,-27.8%
"Cn1c(=O)c2c(ncn2CC2OCCO2)n(C)c1=O [DOXOPHYLLINE, 7-[2'-(1',3'-dioxolanyl)-methyl]-theophylline, reference compound]",IC50,"[1]; Cavia porcellus, Table I, read-out: ED50 (the source's name)",175 µg/mL
same,% inhibition,[1]; concentration 40 x 10^-6 g/ml,0%
same,% inhibition,[1]; concentration 200 x 10^-6 g/ml,-54%
same,% inhibition,[1]; concentration 400 x 10^-6 g/ml,-78%
same,% inhibition,[1]; concentration 800 x 10^-6 g/ml,-100%
same,Mucoproduction (mg/h) M ± SD 4-0 h (before the treatment),rabbits; group dosed 100 mg/kg os,29.8 ± 5.80 mg/h
same,% Variation with respect to its own base,rabbits; dose 100 mg/kg os,+7.71%
same,Mucoproduction (mg/h) M ± SD 0-4 h (after the treatment),rabbits; dose 100 mg/kg os,32.10 ± 8.26 mg/h
same,mucolytic activity (in words),"rabbits; rabbits, oral",no mucolytic activity
same,ED50,"[2]; Cavia porcellus, iv, legend of FIG. 2, unit inferred, read-out: ED 50",2.02 mg/kg
same,"% Variation in endobronchial pressure after administration of acetylcholine chloride (0,075 mg/kg i.v.) M ± SE",[2]; dose 0.5 mg/kg i.v.,153.8 ± 18.4%
same,% inhibition vs. controls,[2]; dose 0.5 mg/kg i.v.,-15.2%
same,"% Variation in endobronchial pressure after administration of acetylcholine chloride (0,075 mg/kg i.v.) M ± SE",[2]; dose 1 mg/kg i.v.,133.3 ± 14.8%
same,% inhibition vs. controls,[2]; dose 1 mg/kg i.v.,-26.5%
same,"% Variation in endobronchial pressure after administration of acetylcholine chloride (0,075 mg/kg i.v.) M ± SE",[2]; dose 2 mg/kg i.v.,88.5 ± 11.3%
same,% inhibition vs. controls,[2]; dose 2 mg/kg i.v.,-51.2%
same,"% Variation in endobronchial pressure after administration of acetylcholine chloride (0,075 mg/kg i.v.) M ± SE",[2]; dose 4 mg/kg i.v.,56.4 ± 8.8%
same,% inhibition vs. controls,[2]; dose 4 mg/kg i.v.,-68.9%
"CC(=O)N[C@@H](CS)C(=O)O [N--acetylcysteine, reference compound]",Mucoproduction (mg/h) M ± SD 4-0 h (before the treatment),rabbits; group dosed 400 mg/kg os,27.7 ± 5.50 mg/h
same,% Variation with respect to its own base,rabbits; dose 400 mg/kg os,+16.21%
same,Mucoproduction (mg/h) M ± SD 0-4 h (after the treatment),rabbits; dose 400 mg/kg os,32.19 ± 3.89 mg/h
